This passage reports IC50 results from patent US20240262795A1, “PYRAZINE COMPOUNDS AS INHIBITORS OF FLT3” (Biomea Fusion, Inc., priority 2021, published 2024).

The structures appear in SMILES notation.

Assay [1] deals with T1, WT FLT3 (Homo sapiens, UniProt P36888).
T1 construct: purchased Invitrogen PR4666C
T1 sequence (P36888 564-993 limits assumed): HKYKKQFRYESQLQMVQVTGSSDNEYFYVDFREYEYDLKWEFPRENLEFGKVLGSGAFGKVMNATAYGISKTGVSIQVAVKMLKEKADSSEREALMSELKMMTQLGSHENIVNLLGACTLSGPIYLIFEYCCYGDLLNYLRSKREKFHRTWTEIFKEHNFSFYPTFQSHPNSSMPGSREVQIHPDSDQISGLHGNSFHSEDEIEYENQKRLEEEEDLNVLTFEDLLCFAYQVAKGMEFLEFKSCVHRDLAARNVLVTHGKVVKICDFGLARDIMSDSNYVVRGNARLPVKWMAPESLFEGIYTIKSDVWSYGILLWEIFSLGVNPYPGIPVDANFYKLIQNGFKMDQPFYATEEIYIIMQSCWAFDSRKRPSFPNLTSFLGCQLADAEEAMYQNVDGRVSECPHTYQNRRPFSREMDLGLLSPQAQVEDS
As to the kind of experiment: WT FLT3 Lance Ultra TR-FRET kinase assay. The class given is biochemical. Put shortly: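 Lance Ultra TR-FRET with 50 nM ULight-JAK-1 (Tyr1023) peptide, Eu-anti-phosphotyrosine (PT66) detection, in HEPES pH 7.5 buffer at 23° C, 30 min enzyme/compound preincubation. WT: 0.5 nM enzyme, 100 μM ATP, 30 min; ITD: 0.0625 nM, 50 μM ATP, 60 min. IC50 by four-parameter fit of 11-point 3× dilutions.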
(In general: In TR-FRET formats the signal depends on donor and acceptor labels being close together.)

In assay [2] the test system is MV-4-11. As to the kind of experiment: Proliferation inhibition, CellTiter-Glo, MV-4-11. The class given is cell-based, human. The following applies: Homo sapiens, MV4-11, 96 h; MV-4:11 cells, IC50 (4 days), CellTiter-Glo; read-out: MV-4:11 IC50. Put shortly:
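About 10,000 cells per well in RPMI-1640 with 10% FBS. Compounds added 2 h after seeding at eight concentrations in duplicate (0.2% DMSO as 100% proliferation), then incubated ~96 h at 37° C, 5% CO2. ATP measured by CellTiter-Glo luminescence; IC50 from four-parameter logistic fit.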
On the technique in general: ATP-based viability assays read luminescence as a measure of living cells.

As usually defined, the IC50 is the concentration that inhibits the measured activity by half. For the compound `CCc1nc(C(N)=O)c(Nc2cccc(CCNC(=O)[C@H](C)N(C)C(=O)/C=C/CN(C)C)c2)nc1N(C)C(C)C` [Compound 204, (S,E)-3-((3-(2-(2-(4-(dimethylamino)-N-methylbut-2-enamido)propanamido)ethyl)phenyl)amino)-6-ethyl-5-(isopropyl(methyl)amino)pyrazine-2-carboxamide], the results for the IC50 in assay [1] and in assay [2] were 0.101 to 0.2 nM and less than 1 nM, respectively.
In the same order, the values of `CCc1nc(C(N)=O)c(Nc2cccc(CCNC(=O)[C@H](C)N(C)C(=O)/C=C/CN(C)C)c2)nc1NC(C)C` [Compound 205, (S,E)-3-((3-(2-(2-(4-(dimethylamino)-N-methylbut-2-enamido)propanamido)ethyl)phenyl)amino)-6-ethyl-5-(isopropylamino)pyrazine-2-carboxamide] are 0.101 to 0.2 nM and less than 1 nM.
In the case of `CCc1nc(C(N)=O)c(Nc2cccc(CCNC(=O)CN(C)C(=O)/C=C/CN(C)C)c2)nc1C1CC1` [Compound 219, (E)-5-cyclopropyl-3-((3-(2-(2-(4-(dimethylamino)-N-methylbut-2-enamido)acetamido)ethyl)phenyl)amino)-6-ethylpyrazine-2-carboxamide], the concentration for half-maximal inhibition (IC50) in assay [2] is less than 1 nM.
Regarding `Cc1nc(C(N)=O)c(Nc2cccc(CCNC(=O)[C@H](C)N(C)C(=O)/C=C/CN(C)C)c2)nc1N(C)C(C)C` [Compound 232, (S, E)-3-((3-(2-(2-(4-(dimethylamino)-N-methylbut-2-enamido)propanamido)ethyl)phenyl)amino)-5-(isopropyl (methyl)amino)-6-methylpyrazine-2-carboxamide], the IC50 in assay [1] was 0.501 to 1 nM; in assay [2], less than 1 nM.
Take `Cc1nc(C(N)=O)c(Nc2cccc(CCNC(=O)CN(C)C(=O)/C=C/CN(C)C)c2)nc1N(C)C(C)C` [Compound 250, (E)-3-((3-(2-(2-(4-(dimethylamino)-N-methylbut-2-enamido)acetamido)ethyl)phenyl)amino)-5-(isopropyl(methyl)amino)-6-methylpyrazine-2-carboxamide]: the results for the 50% inhibitory concentration (IC50) in assay [1] and in assay [2] were 0.201 to 0.5 nM and less than 1 nM, respectively.
Regarding `CCc1nc(C(N)=O)c(Nc2cccc(CCNC(=O)CN(C)C(=O)/C=C/CN(C)C)c2)nc1N(C)CC` [Compound 252, (E)-3-((3-(2-(2-(4-(dimethylamino)-N-methylbut-2-enamido)acetamido)ethyl)phenyl)amino)-6-ethyl-5-(ethyl (methyl)amino) pyrazine-2-carboxamide], the results for the IC50 in assay [1] and in assay [2] were 0.201 to 0.5 nM and less than 1 nM, respectively.
Consider `CCc1nc(C(N)=O)c(Nc2cccc(CCNC(=O)[C@H](C)N(C)C(=O)/C=C/CNC)c2)nc1N(C)C(C)C` [Compound 307, (S,E)-6-ethyl-5-(isopropyl(methyl)amino)-3-((3-(2-(2-(N-methyl-4-(methylamino)but-2-enamido)propanamido)ethyl)phenyl)amino)pyrazine-2-carboxamide], for which the IC50 in assay [1] is 0.201 to 0.5 nM; in assay [2], less than 1 nM.
On to `CCc1nc(C(N)=O)c(Nc2ccnc(CCNC(=O)[C@H](C)N(C)C(=O)/C=C/CN(C)C)c2)nc1C1CC1` [Compound 310, (S,E)-5-cyclopropyl-3-((2-(2-(2-(4-(dimethylamino)-N-methylbut-2-enamido)propanamido)ethyl)pyridin-4-yl)amino)-6-ethylpyrazine-2-carboxamide], for which the values for the half-maximal inhibitory concentration (IC50) in assay [1] and in assay [2] were 0.501 to 1 nM and less than 1 nM, respectively.
Regarding `CCc1nc(C(N)=O)c(Nc2cccc([C@@H](C)CNC(=O)CN(C)C(=O)/C=C/CN(C)C)c2)nc1C1CC1` [Compound 504, (R,E)-5-cyclopropyl-3-((3-(1-(2-(4-(dimethylamino)-N-methylbut-2-enamido)acetamido)propan-2-yl)phenyl)amino)-6-ethylpyrazine-2-carboxamide], the IC50 in assay [2] is less than 1 nM.
As for `CCc1nc(C(N)=O)c(Nc2cccc([C@@H](C)CNC(=O)CN(C)C(=O)/C=C/CN3CCC3)c2)nc1C1CC1` [Compound 506, (R,E)-3-((3-(1-(2-(4-(azetidin-1-yl)-N-methylbut-2-enamido)acetamido)propan-2-yl)phenyl)amino)-5-cyclopropyl-6-ethylpyrazine-2-carboxamide], the values for the IC50 in assay [1] and in assay [2] were 0.101 to 0.2 nM and 1 to 10 nM, respectively.
For `CCCc1nc(Nc2cccc([C@@H](C)CNC(=O)CN(C)C(=O)/C=C/CN3CCC3)c2)c(C(N)=O)nc1CC` [Compound 507, (R,E)-3-((3-(1-(2-(4-(azetidin-1-yl)-N-methylbut-2-enamido)acetamido)propan-2-yl)phenyl)amino)-6-ethyl-5-propylpyrazine-2-carboxamide] the same measures were 0.201 to 0.5 nM and 1 to 10 nM.
For `CCc1nc(Nc2cccc([C@@H](C)CNC(=O)CN(C)C(=O)/C=C/CN3CCC3)c2)c(C(N)=O)nc1CC` [Compound 508, (R, E)-3-((3-(1-(2-(4-(azetidin-1-yl)-N-methylbut-2-enamido)acetamido)propan-2-yl)phenyl)amino)-5,6-diethylpyrazine-2-carboxamide] the same measures were 0.501 to 1 nM and greater than 500 nM.
In the case of `CCc1nc(C(N)=O)c(Nc2cc(F)cc(CCNC(=O)CN(C)C(=O)/C=C/CN3CCC3)c2)nc1C1CC1` [Compound 516, (E)-3-((3-(2-(2-(4-(azetidin-1-yl)-N-methylbut-2-enamido)acetamido)ethyl)-5-fluorophenyl)amino)-5-cyclopropyl-6-ethylpyrazine-2-carboxamide], the half-maximal inhibitory concentration (IC50) in assay [1] was in the range of 0.201 to 0.5 nM; in assay [2], 1 to 10 nM.
As for `CCc1nc(C(N)=O)c(Nc2cccc(CCNC(=O)CN(C)C(=O)/C=C/CN3CCC3)c2)nc1N(C)CC` [Compound 516A, (E)-3-((3-(2-(2-(4-(azetidin-1-yl)-N-methylbut-2-enamido)acetamido)ethyl)phenyl)amino)-6-ethyl-5-(ethyl(methyl)amino) pyrazine-2-carboxamide], the IC50 in assay [1] is 0.501 to 1 nM; in assay [2], less than 1 nM.
With `CCc1nc(C(N)=O)c(Nc2cccc([C@@H](C)CNC(=O)CN(C)C(=O)/C=C/CN3CCC3)c2)nc1N(C)CC` [Compound 518, (R,E)-3-((3-(1-(2-(4-(azetidin-1-yl)-N-methylbut-2-enamido)acetamido)propan-2-yl)phenyl)amino)-6-ethyl-5-(ethyl(methyl)amino)pyrazine-2-carboxamide], the IC50 in assay [1] is 0.201 to 0.5 nM; in assay [2], less than 1 nM.
For the compound `CCOc1nc(Nc2cccc(CCNC(=O)CN(C)C(=O)/C=C/CN3CCC3)c2)c(C(N)=O)nc1CC` [Compound 602, (E)-3-((3-(2-(2-(4-(azetidin-1-yl)-N-methylbut-2-enamido)acetamido)ethyl)phenyl)amino)-5-ethoxy-6-ethylpyrazine-2-carboxamide], the half-maximal inhibitory concentration (IC50) was 0.201 to 0.5 nM in assay [1] and less than 1 nM in assay [2].
In the same order, the values of `CCc1nc(C(N)=O)c(Nc2cccc(CCNC(=O)CN(C)C(=O)/C=C/CN3CCC3)c2)nc1OC(C)C` [Compound 603, (E)-3-((3-(2-(2-(4-(azetidin-1-yl)-N-methylbut-2-enamido)acetamido)ethyl)phenyl)amino)-6-ethyl-5-isopropoxypyrazine-2-carboxamide] are 0.201 to 0.5 nM and less than 1 nM.
On to `CCc1nc(C(N)=O)c(Nc2ccnc(CCNC(=O)[C@H](C)N(C)C(=O)/C=C/CN(C)C)c2)nc1N(C)C(C)C` [Compound 605, (S, E)-3-((2-(2-(2-(4-(dimethylamino)-N-methylbut-2-enamido)propanamido)ethyl)pyridin-4-yl)amino)-6-ethyl-5-(isopropyl (methyl)amino) pyrazine-2-carboxamide], for which the IC50 in assay [1] was 0.201 to 0.5 nM; in assay [2], less than 1 nM.
As to `CCc1nc(C(N)=O)c(Nc2ccc(N3CCC(N4CCN(C)CC4)CC3)c(OC)c2)nc1NC1CCOCC1` [Gilteritinib, gilteritinib, reference compound], the IC50 in assay [2] lay in the range of 1 to 10 nM.
